A short description of the data set: chemical recovery from spiked human plasma; higher = better extraction. As to conditions: pooled human plasma.
[1] abbreviates: extraction method: SPE only (HLB 96-well).
[2] abbreviates: extraction method: solvent precipitation (ACN + hexane).
The mark [3] stands for this setting: extraction method: PES+SPE (3 d PDMS equilibration then HLB SPE).
The mark [4] stands for this setting: extraction method: SPE only (HLB 96-well), PES comparison experiment.

SMILES strings stand for the structures. ± gives the standard deviation.

Consider `O=S(=O)(O)CCC(F)(F)C(F)(F)C(F)(F)C(F)(F)C(F)(F)C(F)(F)C(F)(F)C(F)(F)F` [8.2-Fluorotelomersulfonic-acid], for which the chemical recovery under setting [1] was 34 ± 2.1%.

For the compound `Cc1ccc2c(c1)c1cccc3ccc4cccc2c4c31` [10-Methylbenzo[e]pyrene], the chemical recovery was 0.0979 ± 0.085% under setting [1] and 10.9 ± 1.3% under setting [2].

For `C[N+](C)(C)CC(O)CCl` (centres undefined) [(3-Chloro-2-hydroxypropyl)trimethylammonium], the chemical recovery by setting is: under setting [3], 0.458 ± 0.03%; under setting [1], 1.05 ± 0.96%; under setting [4], 9.57 ± 8%.

`O=C(O)Cc1ccc(S(=O)(=O)O)cc1` [(4-Sulfophenyl)acetic acid] yielded a chemical recovery under setting [4] of 6.28 ± 4%.

In the case of `Oc1cc(O)c2c(c1)O[C@H](c1ccc(O)c(O)c1)[C@H](O)C2` [(-)-Epicatechin], the chemical recovery is 1.62 ± 1.1% under setting [3] and 10.4 ± 5.1% under setting [1].

On to `CC1NC(C)(C)COC1(O)c1cccc(Cl)c1` [(S,S)-Hydroxybupropion], for which the chemical recovery reads like this: under setting [3], 5.72 ± 0.93%; under setting [1], 36.3 ± 2.2%; under setting [2], 59.9 ± 3.2%.

In the case of `Nc1nc(NC2CC2)c2ncn([C@H]3C=C[C@@H](CO)C3)c2n1` [Abacavir], the chemical recovery under setting [2] turned out to be 77 ± 3.4%.

Turning to `c1cc2c3c(cccc3c1)CC2` [Acenaphthene], the chemical recovery is, setting by setting: under setting [1], 9.53 ± 0.88%; under setting [4], 3.64 ± 1.1%.

Take `COP(=O)(NC(C)=O)SC` (centres undefined) [Acephate]: the chemical recovery was 3.58 ± 0.54% under setting [3] and 5.48 ± 5.2% under setting [1].

As for `CC(=O)Nc1ccccc1` [Acetanilide], the chemical recovery by setting is: under setting [3], 40.3 ± 9.3%; under setting [1], 42 ± 2.4%; under setting [2], 80.1 ± 3.5%.

As to `c1ccc2nc3ccccc3cc2c1` [Acridine], the chemical recovery was 39.7 ± 8% under setting [3], 28.4 ± 1.4% under setting [1], 51.6 ± 11% under setting [4] and 49.6 ± 2.4% under setting [2].

As for `Nc1c(Br)cc(Br)cc1CN[C@H]1CC[C@H](O)CC1` [Ambroxol], the chemical recovery runs as follows: under setting [3], 5.97 ± 0.52%; under setting [1], 37.1 ± 7.2%; under setting [4], 29.4 ± 6.9%.

For the compound `CCN1CCCC1CNC(=O)c1cc(S(=O)(=O)CC)c(N)cc1OC` (centres undefined) [Amisulpride], the chemical recovery under setting [2] was 70.3 ± 3.4%.

Turning to `C[C@@]12CCC[C@H]1[C@@H]1CC[C@H]3C[C@@H](O)CC[C@]3(C)[C@H]1CC2` [Androstanol], the chemical recovery under setting [1] came to 1.3 ± 0.4% and the chemical recovery under setting [2] stood at 44.7 ± 6%.

Consider `Nc1ccccc1` [Aniline], for which the chemical recovery is 4.94 ± 0.92% under setting [3] and 4.14 ± 2.7% under setting [1].

In the case of `CC(C)(C)c1cc(Cn2c(=O)n(Cc3cc(C(C)(C)C)c(O)c(C(C)(C)C)c3)c(=O)n(Cc3cc(C(C)(C)C)c(O)c(C(C)(C)C)c3)c2=O)cc(C(C)(C)C)c1O` [Antioxidant-3114], the chemical recovery is 5.69 ± 2.6% under setting [1] and 58.4 ± 13% under setting [2].

`CC(C)NCC(O)COc1ccc(CC(N)=O)cc1` (centres undefined) [Atenolol]: the chemical recovery by setting is: under setting [3], 17.1 ± 4.2%; under setting [1], 14 ± 6.1%; under setting [2], 76 ± 2.5%.

On to `CC(C)c1c(C(=O)Nc2ccccc2)c(-c2ccccc2)c(-c2ccc(F)cc2)n1CC[C@@H](O)C[C@@H](O)CC(=O)O` [Atorvastatin], for which the chemical recovery came out at 32.2 ± 9.6% under setting [3], 30.1 ± 3.9% under setting [1], 41.1 ± 8.4% under setting [4] and 61.7 ± 3% under setting [2].

For the compound `COc1ccc(C(=O)CC(=O)c2ccc(C(C)(C)C)cc2)cc1` [Avobenzone], the chemical recovery under setting [1] amounted to 8.77 ± 0.79%.

As for `O=C(O)CCCCCCCC(=O)O` [Azelaic-acid], the chemical recovery under setting [1] turned out to be 53.1 ± 4%.

In turn, `Brc1cc(Br)c(Oc2c(Br)cc(Br)c(Br)c2Br)cc1Br` [BDE183] registered a chemical recovery under setting [3] of 5.01 ± 7.1%.

Consider `CCN(CCO)c1ccc(/N=N/c2sc3cc(OC)ccc3[n+]2C)cc1` [Basic-Blue-41], for which the chemical recovery under setting [2] stood at 18.5 ± 1.6%.

Turning to `CC(C)N1C(=O)c2ccccc2N(C)S1(=O)=O` [Bentazone-methyl], the chemical recovery was found to be 53.5 ± 11% under setting [3], 28.9 ± 1.5% under setting [1] and 46.3 ± 5.3% under setting [2].

For the compound `c1ccc2[nH]cnc2c1` [Benzimidazole], the chemical recovery runs as follows: under setting [3], 16.9 ± 4.1%; under setting [1], 4.01 ± 3.3%; under setting [2], 72 ± 2.6%.

For `c1ccc2c(c1)ccc1sc3ccccc3c12` [Benzo[b]naphtho(1,2-d)thiophene], the chemical recovery came to 0.745 ± 0.2% under setting [1] and 20.4 ± 2.6% under setting [2].

Turning to `c1ccc2cc3c(cc2c1)sc1ccccc13` [Benzo[b]naphtho(2,3-d)thiophene], the chemical recovery under setting [3] was found to be 61.7 ± 20%, the chemical recovery under setting [1] is 0.871 ± 0.26% and the chemical recovery under setting [2] was found to be 63.3 ± 6.8%.

Consider `O=C(OCc1ccccc1)c1ccccc1O` [Benzyl salicylate], for which the chemical recovery is 1.14 ± 0.085% under setting [1] and 26.5 ± 2.6% under setting [2].

In the case of `c1ccc(COc2ccc3ccccc3c2)cc1` [Benzyl-2-naphthylether], the chemical recovery reads like this: under setting [1], 0.473 ± 0.12%; under setting [2], 24.2 ± 0.93%.

Take `CCCCCCCCCC[N+](C)(C)Cc1ccccc1` [Benzyldimethyldecylammonium]: under setting [2], the chemical recovery was determined as 66.1 ± 3.3%.

Consider `CCCCCCCCCCCCCCCC[N+](C)(C)Cc1ccccc1` [Benzyldimethylhexadecylammonium], for which, under setting [2], the chemical recovery is 63.9 ± 7.4%.

With `C[N+](C)(C)Cc1ccccc1` [Benzyltrimethylammonium], the chemical recovery was 3.88 ± 2.8% under setting [1] and 75.8 ± 2.6% under setting [2].

As to `Cc1c(COC(=O)C2C(/C=C(\Cl)C(F)(F)F)C2(C)C)cccc1-c1ccccc1` (centres undefined) [Bifenthrin], the chemical recovery was 0.536 ± 0.24% under setting [1] and 18.9 ± 3.9% under setting [2].

Consider `CCCCC(CC)COP(=O)(O)OCC(CC)CCCC` (centres undefined) [Bis(2-ethylhexyl)phosphate], for which the chemical recovery reads like this: under setting [3], 16.4 ± 4.5%; under setting [1], 20.3 ± 2.5%; under setting [4], 3.88 ± 1.6%; under setting [2], 52.8 ± 4.3%.

For `CCCCCC(CCC)COC(=O)c1ccccc1C(=O)OCC(CCC)CCCCC` (centres undefined) [Bis(2-propylheptyl)-phthalate], the chemical recovery under setting [2] worked out at 70.9 ± 7.4%.

On to `CC1CC(CC2CCC(N)C(C)C2)CCC1N` (centres undefined) [Bis(4-amino-3-methylcyclohexyl)methane], for which the chemical recovery under setting [2] is 41.1 ± 7.7%.

As to `Oc1ccc(C(c2ccc(O)cc2)(C(F)(F)F)C(F)(F)F)cc1` [Bisphenol-AF], the chemical recovery by setting is: under setting [3], 86.8 ± 4.4%; under setting [1], 51.2 ± 7.6%; under setting [2], 41.6 ± 2.4%.

Turning to `CC(C)(c1ccc(O)cc1)c1ccc(O)cc1` [Bisphenol-A], the chemical recovery turned out to be 69.8 ± 4.4% under setting [3] and 45.4 ± 3.8% under setting [1].

Take `Oc1ccc(C(c2ccccc2)(c2ccccc2)c2ccc(O)cc2)cc1` [Bisphenol-BP]: the chemical recovery came out at 40.9 ± 7.5% under setting [1] and 35.1 ± 3.6% under setting [2].

`CCC(C)(c1ccc(O)cc1)c1ccc(O)cc1` [Bisphenol-B]: the chemical recovery reads like this: under setting [3], 63.4 ± 2%; under setting [1], 45.4 ± 1.4%; under setting [2], 49.7 ± 3.2%.

For the compound `Cc1cc(C(C)(C)c2ccc(O)c(C)c2)ccc1O` [Bisphenol-C], the chemical recovery is, setting by setting: under setting [3], 52.7 ± 2.9%; under setting [1], 34.5 ± 4.8%; under setting [2], 39.4 ± 2.5%.

On to `CC(c1ccc(O)cc1)c1ccc(O)cc1` [Bisphenol-E], for which the chemical recovery under setting [3] turned out to be 62.3 ± 2.5%, the chemical recovery under setting [1] stood at 51 ± 4% and the chemical recovery under setting [2] was determined as 63.7 ± 3.1%.

For `Oc1ccc(C2(c3ccc(O)cc3)c3ccccc3-c3ccccc32)cc1` [Bisphenol-FL], the chemical recovery is, setting by setting: under setting [1], 34.3 ± 5.9%; under setting [2], 26.8 ± 4.5%.

As for `Oc1ccc(Cc2ccc(O)cc2)cc1` [Bisphenol-F], the chemical recovery runs as follows: under setting [3], 70.2 ± 3.4%; under setting [1], 56 ± 2.6%; under setting [2], 72.6 ± 3.6%.

`CC(C)c1cc(C(C)(C)c2ccc(O)c(C(C)C)c2)ccc1O` [Bisphenol-G]: the chemical recovery under setting [1] was 8.379 ± 0.058% and the chemical recovery under setting [2] was 39.5 ± 3.7%.

As for `CC(C)(c1ccc(O)c(-c2ccccc2)c1)c1ccc(O)c(-c2ccccc2)c1` [Bisphenol-PH], the chemical recovery was determined as 64.8 ± 12% under setting [3], 26.7 ± 7% under setting [1] and 38 ± 5% under setting [2].

On to `CCC(C)n1c(=O)[nH]c(C)c(Br)c1=O` (centres undefined) [Bromacil], for which the chemical recovery is, setting by setting: under setting [3], 64.5 ± 4.7%; under setting [1], 49.3 ± 3%; under setting [2], 72.7 ± 2.8%.

`CC(NC(C)(C)C)C(=O)c1cccc(Cl)c1` (centres undefined) [Bupropion]: the chemical recovery by setting is: under setting [3], 0.191 ± 0.047%; under setting [1], 37.7 ± 3.8%; under setting [4], 38.7 ± 8.2%; under setting [2], 23.5 ± 3.1%.

Compound `CNC(=O)ON=C(C)C(C)SC` (centres undefined) [Butocarboxim] displayed a chemical recovery under setting [4] of 46.4 ± 8.7%.

As for `Oc1ccc2c(c1)[C@@]13CCCC[C@@]1(O)[C@@H](C2)N(CC1CCC1)CC3` [Butorphanol], the chemical recovery reads like this: under setting [1], 34.7 ± 9.8%; under setting [2], 65.5 ± 6.6%.

`CCCCOC(=O)c1ccc(O)cc1` [Butylparaben]: the chemical recovery under setting [3] was 51.3 ± 3.1%, the chemical recovery under setting [1] is 37.5 ± 1.3% and the chemical recovery under setting [2] came out at 64.9 ± 1.9%.

Regarding `CNC(=O)Oc1cccc2c1OC(C)(C)C2` [Carbofuran], the chemical recovery is, setting by setting: under setting [3], 41.4 ± 4.8%; under setting [1], 43.6 ± 1.7%; under setting [2], 47.2 ± 7%.

Regarding `c1ccc2c(c1)[nH]c1ncccc12` [Carboline], the chemical recovery runs as follows: under setting [3], 28 ± 5.2%; under setting [1], 40.3 ± 2.9%; under setting [2], 72.2 ± 3.8%.

The compound `Nc1nc2c(ncn2COCC(=O)O)c(=O)[nH]1` [Carboxy-aciclovir] showed a chemical recovery under setting [1] of 1.5 ± 1.3%.

On to `CCCC(C)(COC(N)=O)COC(=O)NC(C)C` (centres undefined) [Carisoprodol], for which, under setting [2], the chemical recovery worked out at 78.1 ± 5.9%.

`C[C@H](CCC(=O)O)[C@H]1CC[C@H]2[C@@H]3[C@H](O)C[C@@H]4C[C@H](O)CC[C@]4(C)[C@H]3CC[C@]12C` [Chenodeoxycholic-acid]: the chemical recovery worked out at 37.4 ± 7.9% under setting [1] and 74.9 ± 4.7% under setting [2].

On to `CNC(=O)c1cc(Cl)cc(C)c1NC(=O)c1cc(Br)nn1-c1ncccc1Cl` [Chlorantraniliprole], for which the chemical recovery is, setting by setting: under setting [3], 66.7 ± 5.2%; under setting [1], 49.5 ± 2.3%; under setting [2], 75.5 ± 1.2%.

As for `Cc1cc(Cl)ccc1/N=C/N(C)C` [Chlordimeform], the chemical recovery runs as follows: under setting [3], 28.8 ± 4.5%; under setting [1], 24.7 ± 4.2%; under setting [2], 30.1 ± 3.3%.

On to `O=C(O)C1C(C(=O)O)C2(Cl)C(Cl)=C(Cl)C1(Cl)C2(Cl)Cl` (centres undefined) [Chlorendic-acid], for which the chemical recovery worked out at 27 ± 6.5% under setting [3], 23.9 ± 3.7% under setting [1] and 28.2 ± 7.5% under setting [2].

For the compound `C[N+](C)(C)CCCl` [Chlormequat], the chemical recovery worked out at 0.51 ± 0.024% under setting [3], 0.778 ± 0.52% under setting [1], 10.2 ± 8.2% under setting [4] and 85 ± 12% under setting [2].

The values above are taken from the supplement of paper PMC10702517.
